Data: patent US5187192A, “Cyclobutyl derivatives having lipoxygenase inhibitory activity” (Abbott Laboratories, priority 1992, dated 1993)

Key:
[1] = tested on: leukotriene biosynthesis; assay: Inhibition of leukotriene biosynthesis in vivo after oral administration, rat peritoneal anaphylaxis model; details: at 30 μM/kg, gavage one hour prior to antigen challenge, peritoneal fluid 15 minutes after challenge
Description: Inhibition of the biosynthesis of leukotrienes in vivo after oral administration of compound was determined using a rat peritoneal anaphylaxis model in a similar manner as that described by Yound and coworkers (Young, P. R.; Dyer, R. D.; Carter, G. W. Fed. Proc., Fed. Am. Soc. Exp. Biol. 1985, 44, 1185). In this model rats were injected intraperitoneally (ip) with rabbit antibody to bovine serum albumin (BSA) and three hours later injected ip with BSA to induce an antigen-antibody response. Rats were sacrificed 15 minutes after this challenge and the peritoneal fluids were collected and analyzed for leukotriene levels. Test compounds were administered by gavage one hour prior to the antigen challenge. Percent inhibition values were determined by comparing the treatment group to the mean of the control group.

[2] = molecular target: T1, 5-Lipoxygenase (Homo sapiens, UniProt P09917); assay: Inhibition of calcium ionophore-induced LTB4 biosynthesis in human whole blood (5-lipoxygenase inhibition); assay type: cell-based; details: human heparinized whole blood, A23187 8.3 μM; for IC50: 15 min preincubation at 37° C., 30 min, read-out: IC50, inhibition of 5-lipoxygenase from stimulated LTB4 formation in human whole blood; for percent inhibition of 5-lipoxygenase from stimulated LTB4 formation in human whole blood: @ 0.1 (column unit 10^-6 M)
T1 construct: Human heparinized whole blood was preincubated with test compounds or vehicle for 15 min; endogenous in cells; host or cells: heparinized human whole blood (blood cells stimulated with calcium ionophore A23187)
T1 sequence (P09917 1-674): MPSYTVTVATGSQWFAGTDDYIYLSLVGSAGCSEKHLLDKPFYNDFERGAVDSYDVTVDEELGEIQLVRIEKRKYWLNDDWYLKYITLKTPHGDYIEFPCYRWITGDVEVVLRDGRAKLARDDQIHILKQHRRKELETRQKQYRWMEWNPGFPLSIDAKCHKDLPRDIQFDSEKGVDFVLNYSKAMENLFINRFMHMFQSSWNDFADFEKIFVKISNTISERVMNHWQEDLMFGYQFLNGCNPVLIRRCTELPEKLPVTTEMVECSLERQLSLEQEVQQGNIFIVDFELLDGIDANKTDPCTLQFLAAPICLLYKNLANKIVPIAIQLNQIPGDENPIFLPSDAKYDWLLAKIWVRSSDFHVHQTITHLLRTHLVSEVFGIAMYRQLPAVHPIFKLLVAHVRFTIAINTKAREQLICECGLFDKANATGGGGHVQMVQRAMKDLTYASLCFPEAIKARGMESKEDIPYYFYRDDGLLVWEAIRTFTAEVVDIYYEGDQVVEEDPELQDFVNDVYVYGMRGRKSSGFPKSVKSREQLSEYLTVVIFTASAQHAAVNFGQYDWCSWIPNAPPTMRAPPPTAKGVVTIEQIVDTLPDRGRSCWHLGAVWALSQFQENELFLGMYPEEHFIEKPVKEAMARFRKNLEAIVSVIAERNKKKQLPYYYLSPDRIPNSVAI
Description: Inhibition of leukotriene biosynthesis was evaluated in an assay, involving calcium ionophore-induced LTB4 biosynthesis expressed human whole blood. […] The methanol extract was analyzed for LTB4 using a commercially available radioimmunoassay.

| SMILES | IC50 [2] | percent inhibition of 5-lipoxygenase from stimulated LTB4 formation in human whole blood [2] | Percent Inhibition of Leukotriene Biosynthesis [1] |
| --- | --- | --- | --- |
| NC(=O)N(O)C1CC(c2ccc(Oc3ccc(F)cc3)s2)C1 (single isomer, unassigned) [Example 3a, N-[3-(5-(4-fluorophenoxy)thien-2-yl)-cyclobutyl]-N-hydroxyurea] |  | 53% |  |
| NC(=O)N(O)C1CC(c2ccc(Oc3ccc(F)cc3)s2)C1 (single isomer, unassigned) [Example 3b, N-[3-(5-(4-fluorophenoxy)thien-2-yl)-cyclobutyl]-N-hydroxyurea] |  | 52% | 82% |
| COc1ccc2cc(C3CC(N(O)C(N)=O)C3)ccc2c1 (single isomer, unassigned) [Example 4b, N-[3-(6-methoxy-2-naphthyl)-cyclobutyl]-N-hydroxyurea] | 520 nM |  |  |
| NC(=O)N(O)C1CC(c2ccc(-c3ccccc3)cc2)C1 (single isomer, unassigned) [Example 5b, N-[3-(4-biphenyl)-cyclobutyl]-N-hydroxyurea] | 960 nM |  |  |
| COc1cccc(C2CC(N(O)C(C)=O)C2)c1 (single isomer, unassigned) [Example 6b, N-[3-(3-methoxyphenyl)cyclobutyl]-N-hydroxyacetamide] | 1210 nM |  |  |

Further lines, with some results ahead:

| IC50 [2] | percent inhibition of 5-lipoxygenase from stimulated LTB4 formation in human whole blood [2] | SMILES | Percent Inhibition of Leukotriene Biosynthesis [1] |
| --- | --- | --- | --- |
| 130 nM |  | NC(=O)N(O)C1CC(c2cccc(Oc3ccc(F)cc3)c2)C1 (single isomer, unassigned) [Example 1a, N-[3-(3-(4-fluorophenoxy)phenyl)-cyclobutyl]-N-hydroxyurea] | 76% |
| 160 nM |  | NC(=O)N(O)C1CC(c2cccc(Oc3ccc(F)cc3)c2)C1 (single isomer, unassigned) [Example 1b, N-[3-(3-(4-fluorophenoxy)phenyl)-cyclobutyl]-N-hydroxyurea] | 59% |
| 330 nM |  | NC(=O)N(O)C1CC(c2ccccc2)C1 (single isomer, unassigned) [Example 2a, N-[3-phenylcyclobutyl]-N-hydroxyurea] | 51% |
| 300 nM |  | NC(=O)N(O)C1CC(c2ccccc2)C1 (single isomer, unassigned) [Example 2b, N-[3-phenylcyclobutyl]-N-hydroxyurea] | 45% |
| 230 nM |  | COc1ccc2cc(C3CC(N(O)C(N)=O)C3)ccc2c1 (single isomer, unassigned) [Example 4a, N-[3-(6-methoxy-2-naphthyl)-cyclobutyl]-N-hydroxyurea] |  |
| 90 nM |  | NC(=O)N(O)C1CC(c2ccc(-c3ccccc3)cc2)C1 (single isomer, unassigned) [Example 5a, N-[3-(4-biphenyl)-cyclobutyl]-N-hydroxyurea] |  |
| 510 nM |  | COc1cccc(C2CC(N(O)C(C)=O)C2)c1 (single isomer, unassigned) [Example 6a, N-[3-(3-methoxyphenyl)cyclobutyl]-N-hydroxyacetamide] |  |
